Assay results from patent US9139578B2 (BRISTOL-MYERS SQUIBB COMPANY, priority 2012, dated 2015).

Biological target: endothelial lipase (EL) (Homo sapiens (Human), UniProt Q9Y5X9)
Assay: Endothelial lipase (EL) enzymatic assay with fluorescent substrate A10070 in DMPG vesicles
Format: biochemical
Settings: conditioned media from HT-1080 cells overexpressing endogenous EL; 20 min preincubation at 37° C.
Procedure: Endothelial lipase activity was measured using a fluorescent substrate, A10070, (Invitrogen, CA) doped into an artificial vesicle containing DMPG (Avanti Polar Lipids) as the excipient. Vesicles were prepared by combining 285 μL, of 1 mM DMPG in a 1:1 mixture of MeOH and CHCl3 with 15 μL, of 1 mM A10070 in a 1:1 mixture of MeOH and CHCl3. The mixture was dried under nitrogen and resuspended in 150 μL, of 50 mM HEPES pH 8.0 buffer containing 100 mM NaCl and 0.2 mM EDTA. The sample was allowed to sit at rt for 15 min and then was sonicated 3×4 mins on ice with a Branson Sonicator using duty cycle 1. This preparation provides vesicles with a mole fraction of 0.05 for the FRET substrate.
The enzymatic assay was measured using white, opaque 96-well half area plates. Each well contained 60 μL, of assay buffer (50 mM HEPES pH 8.0, 50 mM NaCl and 1 mM CaCl2) and 2 ul of a DMSO solution containing compound of interest. Conditioned media obtained from HT-1080 cells, which were transformed by RAGE technology (Athersys) to overexpress endogenous EL, was added and the reaction was allowed to incubate for 20 min at 37° C. with gentle agitation. The reaction was started by the addition of 20 μL, of a 1:4 dilution of vesicles. The final total reaction volume was 100 μL. The reaction rates were measured on a Gemini plate reader with an excitation wavelength of 488 nm and an emission of 530 nm. Readings were taken every 20 seconds for 10 min with agitation between each reading. The slope of the linear portion of the readout was used to calculate the rate of the reaction.

endothelial lipase (EL), sequence (Q9Y5X9 21-500): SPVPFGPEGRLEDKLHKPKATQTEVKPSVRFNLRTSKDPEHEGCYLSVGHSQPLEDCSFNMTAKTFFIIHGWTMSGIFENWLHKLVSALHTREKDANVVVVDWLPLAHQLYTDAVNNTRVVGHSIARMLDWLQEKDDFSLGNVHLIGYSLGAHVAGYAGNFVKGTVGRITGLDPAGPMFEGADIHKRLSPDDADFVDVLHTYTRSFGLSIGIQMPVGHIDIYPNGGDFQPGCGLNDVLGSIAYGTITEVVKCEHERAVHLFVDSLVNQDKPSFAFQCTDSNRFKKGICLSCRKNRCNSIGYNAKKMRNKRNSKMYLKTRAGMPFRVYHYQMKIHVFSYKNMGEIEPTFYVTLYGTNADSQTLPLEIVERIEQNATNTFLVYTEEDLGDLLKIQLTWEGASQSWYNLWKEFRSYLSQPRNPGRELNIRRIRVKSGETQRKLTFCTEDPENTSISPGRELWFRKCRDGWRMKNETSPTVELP

SMILES	IC50 [nM]
CC(=O)NC(c1nnc(C2CNC2)o1)c1nc2ccc(-c3ccccc3)cc2s1 (centres unmarked) [Example 25, N-((5-(azetidin-3-yl)-1,3,4-oxadiazol-2-yl)(6-phenylbenzo[d]thiazol-2-yl)methyl)acetamide]	277
CC(=O)NC(c1nnc(C2CN(CC(C)(C)C)C2)o1)c1nc2ccc(-c3ccccc3)cc2s1 (centres unmarked) [Example 26, N-((5-(1-neopentylazetidin-3-yl)-1,3,4-oxadiazol-2-yl)(6-phenylbenzo[d]thiazol-2-yl)methyl)acetamide]	17
CC(C)NC(=O)NC(c1nnc(CNS(N)(=O)=O)o1)c1nc2ccc(-c3ccccc3)cc2s1 (centres unmarked) [Example 15, 1-isopropyl-3-((6-phenyl-1,3-benzothiazol-2-yl)(5-((sulfamoylamino)-methyl)-1,3,4-oxadiazol-2-yl)methyl)urea]	< 10
CC(=O)NC(c1nnc(CC2SC(=O)NC2=O)o1)c1nc2ccc(-c3ccc(F)nc3)cc2s1 (centres unmarked) [Example 9, N-((5-((2,4-dioxo-thiazolidin-5-yl)methyl)-1,3,4-oxadiazol-2-yl)-(6-(6-fluoropyridin-3-yl)benzo[d]-thiazol-2-yl)-methyl)-acetamide]	< 10
CC(C)C(=O)NC(c1nnc(CNS(N)(=O)=O)o1)c1nc2ccc(-c3ccccc3)cc2s1 (centres unmarked) [Example 13, N-((6-phenylbenzo[d]-thiazol-2-yl)(5-((sulfamoylamino)-methyl)-1,3,4-oxadiazol-2-yl)methyl)-isobutyramide]	< 10
CCOC(=O)CNC(=O)NC(c1nnc(CNS(N)(=O)=O)o1)c1nc2ccc(-c3ccc(F)nc3)cc2s1 (centres unmarked) [Example 6, ethyl 2-(3-((6-(6-fluoropyridin-3-yl)benzo[d]-thiazol-2-yl)(5-((sulfamoyl-amino)-methyl)-1,3,4-oxadiazol-2-yl)methyl)-ureido)acetate]	< 10
NS(=O)(=O)NCc1nnc(C(NC(=O)c2ccc(C(F)(F)F)cc2)c2nc3ccc(-c4ccc(F)nc4)cc3s2)o1 (centres unmarked) [Example 2, N-((6-(6-fluoropyridin-3-yl)benzo[d]-thiazol-2-yl)(5-((sulfamoyl-amino)-methyl)-1,3,4-oxadiazol-2-yl)methyl)-4-(trifluoro-methyl)-benzamide]	< 10
CC(=O)NC(c1nnc(CC2SC(=O)NC2=O)o1)c1nc2ccc(-c3ccnn3C)cc2s1 (centres unmarked) [Example 11, N-((5-((2,4-dioxo-thiazolidin-5-yl)methyl)-1,3,4-oxadiazol-2-yl)(6-(1-methyl-1H-pyrazol-5-yl)benzo[d]-thiazol-2-yl)methyl)-acetamide]	< 10
CC(=O)NC(c1nnc(CNS(N)(=O)=O)o1)c1nc2ccc(-c3ccc(F)nc3)cc2s1 (centres unmarked) [Example 10, N-((6-(6-fluoropyridin-3-yl)benzo[d]-thiazol-2-yl)(5-((sulfamoyl-amino)-methyl)-1,3,4-oxadiazol-2-yl)methyl)-acetamide]	< 10
O=C1NC(=O)C(Cc2nnc(C(NC(=O)c3ccc(C(F)(F)F)cc3)c3nc4ccc(-c5ccc(F)nc5)cc4s3)o2)S1 (centres unmarked) [Example 1, N-((5-((2,4-dioxothiazolidin-5-yl)methyl)-1,3,4-oxadiazol-2-yl)(6-(6-fluoropyridin-3-yl)benzo[d]thiazol-2-yl)methyl)-4-(trifluoromethyl)benzamide]	< 10
NS(=O)(=O)NCc1nnc(C(NC(=O)c2ccc(C(F)(F)F)cc2)c2nc3ccc(-c4ccccc4)cc3s2)o1 (centres unmarked) [Example 16, N-((6-phenylbenzo[d]-thiazol-2-yl)(5-((sulfamoylamino)-methyl)-1,3,4-oxadiazol-2-yl)methyl)-4-(trifluoromethyl)-benzamide]	< 10
O=C1NC(=O)C(Cc2nnc(C(NC(=O)c3ccc(C(F)(F)F)cc3)c3nc4c(F)cc(-c5ccccc5)cc4s3)o2)S1 (centres unmarked) [Example 22]	< 10
NS(=O)(=O)NCc1nnc(C(NC(=O)NCc2ccccc2)c2nc3ccc(-c4ccc(F)nc4)cc3s2)o1 (centres unmarked) [Example 4, 1-benzyl-3-((6-(6-fluoro-3-pyridinyl)-1,3-benzothiazol-2-yl)(5-((sulfamoyl-amino)-methyl)-1,3,4-oxadiazol-2-yl)methyl)urea]	< 10
NS(=O)(=O)NCc1nnc(C(NC(=O)Nc2ccc(F)cc2)c2nc3ccc(-c4ccc(F)nc4)cc3s2)o1 (centres unmarked) [Example 7, 1-(4-fluoro-phenyl)-3-((6-(6-fluoro-3-pyridinyl)-1,3-benzothiazol-2-yl)(5-((sulfamoyl-amino)-methyl)-1,3,4-oxadiazol-2-yl)methyl)urea]	< 10
O=C(NC(c1nnc(CS(=O)(=O)O)o1)c1nc2ccc(-c3ccccc3)cc2s1)C1CC1 (centres unmarked) [Example 18, (5-(cyclopropane-carboxamido-(6-phenylbenzo[d]-thiazol-2-yl)methyl)-1,3,4-oxadiazol-2-yl)methanesulfonic acid]	< 10
CC(=O)NC(c1nnc(CC2(C)NC(=O)NC2=O)o1)c1nc2ccc(-c3ccc(C(=O)N4CCOCC4)cc3)cc2s1 (centres unmarked) [Example 23, N-((5-((4-methyl-2,5-dioxoimidazolidin-4-yl)methyl)-1,3,4-oxadiazol-2-yl)(6-(4-(morpholine-4-carbonyl)phenyl)benzo[d]thiazol-2-yl)methyl)acetamide]	131
COc1nc(-c2nnc(C(NC(C)=O)c3nc4ccc(-c5ccccc5)cc4s3)o2)c(O)c(=O)[nH]1 (centres unmarked) [Example 24, N-((5-(5-hydroxy-2-methoxy-6-oxo-1,6-dihydropyrimidin-4-yl)-1,3,4-oxadiazol-2-yl)(6-phenylbenzo[d]thiazol-2-yl)methyl)acetamide]	25
CCC(=O)NC(c1nnc(CNS(N)(=O)=O)o1)c1nc2ccc(-c3ccc(F)nc3)cc2s1 (centres unmarked) [Example 5, N-((6-(6-fluoropyridin-3-yl)benzo[d]-thiazol-2-yl)(5-M-((sulfamoyl-amino)-methyl)-1,3,4-oxadiazol-2-yl)methyl)-propionamide]	< 10
CC(=O)NC(c1nnc(CNS(N)(=O)=O)o1)c1nc2ccc(-c3ccccc3)cc2s1 (centres unmarked) [Example 12, N-((6-phenylbenzo[d]thiazol-2-yl)(5-((sulfamoylamino)methyl)-1,3,4-oxadiazol-2-yl)methyl)acetamide]	< 10
O=C1NC(=O)C(Cc2nnc(C(NC(=O)C3CC3)c3nc4c(F)cc(-c5ccccc5)cc4s3)o2)S1 (centres unmarked) [Example 21]	< 10
NS(=O)(=O)NCc1nnc(C(NC(=O)c2cccnc2)c2nc3ccc(-c4ccc(F)nc4)cc3s2)o1 (centres unmarked) [Example 3, N-((6-(6-fluoropyridin-3-yl)benzo[d]-thiazol-2-yl)(5-((sulfamoyl-amino)-methyl)-1,3,4-oxadiazol-2-yl)methyl)-nicotinamide]	< 10
Cc1noc(C)c1NC(=O)NC(c1nnc(CNS(N)(=O)=O)o1)c1nc2ccc(-c3ccc(F)nc3)cc2s1 (centres unmarked) [Example 8, 1-(3,5-dimethyl-4-isoxazolyl)-3-((6-(6-fluoro-3-pyridinyl)-1,3-benzothiazol-2-yl)(5-((sulfamoyl-amino)-methyl)1,3,4-oxadiazol-2-yl)methyl)urea]	< 10
CC(=O)NC(c1nnc(CNC(=O)OC(C)(C)C)o1)c1nc2ccc(-c3ccccc3)cc2s1 (centres unmarked) [Example 17, tert-butyl ((5-(acetamido(6-phenylbenzo[d]-thiazol-2-yl)methyl)-1,3,4-oxadiazol-2-yl)methyl)-carbamate]	< 10
